# Experimental data published in patent publication US20060241130A1, “Anti-inflammatory compositions and uses thereof” (priority 2003, published 2006).
# Key:
# [1] = tested on: ovalbumin sensitized Brown Norway rats; assay: Asthma treatment model II: Penh (barometric plethysmography) after repeated OVA challenge; format: in vivo, rat; settings: 125 ppm in breathing atmosphere day 14 to day 21, measured day 21, 5 minutes after allergen challenge, mean ± standard error
# Protocol: (§1) Asthma treatment model II: Asthma was induced on day 0 in three experimental groups of 10 animals each, by sensitization with ovalbumin (OVA) and aluminum hydroxide, as previously described (Du et al., 1992. Am. Rev. Resp. Dis. 146:1037-1041). Sensitization to the model antigen ovalbumin (OVA) was carried out by subcutaneous injection of 1 mg OVA (Sigma, St. Louis, Mo.) and 200 mg of aluminum hydroxide (AlumInject; Pierce Chemical, Rockford, Ill.) in 0.9 percent (w/w) saline in a total volume of 1 ml, and intraperitoneal injection of 1 ml saline containing 6 billion heat killed Bordetella pertussis cells (Pasteur Marieux, France). A fourth group of 10 animals was not sensitized and was used as the naive control group. The three groups of sensitized rats as well as the group of naive animals were challenged every other day from day 14 until day 21 with repeated 10 minute long inhalations of OVA using an ultrasonic nebulizer inhaler (LS 230 Systam Villeneuve Sur Lot, France). Throughout the experiments, the rats were kept unrestrained in a 20 liters box.
# [2] = tested on: ovalbumin sensitized Brown Norway rats; assay: Asthma treatment model II: blinded histopathological scoring of lung sections (H&E); format: in vivo, rat
# Protocol: as §1
# In model II, all rats were anaesthetized on day 21 with pentothal and sacrificed by bleeding from the abdominal aorta. Lungs were removed and inflated with 4 percent buffered formaldehyde overlayed with 20 cm water. The lungs were sliced longitudinally and embedded in paraffin. Histologic sections 5 microns thick were cut and stained with hematoxylin and eosin. The morphological changes were evaluated by light microscopy by a pathologist who was blinded to the treatment groups. The intensity of the peribronchiolar and perivascular cellular infiltration was assessed semi-quantitatively on a 0-3 scale as follows: 0=no or practically no inflammatory cells; I=a narrow rim of inflammatory cells surrounding most of the bronchioles/blood vessels, best visualized under high power; 2=a rim of inflammatory cells 3-4 cells thick, surrounding most of the bronchioles/blood vessels; 3=a prominent rim of inflammatory cells, 5 or more cells thick, surrounding most of the bronchioles/blood vessels. Bronchiolar constriction was also assessed on a semi-quantitative scale ranging over 0-3 grades (0=none; 1=mild; 2=moderate; 3=marked). The histologic sections included bronchioles (defined as airways lined by mucosa and lacking cartilage) and distal airways (alveolar ducts and sacs). The features examined included peribronchiolar and perivascular inflammation, morphological evidence of bronchoconstriction (papillary infolding of the bronchiolar mucosa) and granulomatous response in the pulmonary parenchyma.
# [3] = Cromolyn sodium lyotropic mesophase formation (polarizing microscope); format: physicochemical; settings: phosphate buffered saline pH 7.4, 5 to 12 percent (w/w) tested
# Protocol: Preparation of cromolyn sodium lyotropic mesophases: Solutions of cromolyn sodium (white powder, Vitamed Inc., Israel) were dissolved in phosphate buffered saline [50 mM phosphate, 100 mM NaCl (pH 7.4)] at eight different concentrations between 5 and 12 percent (w/w).
# [4] = Control: effect of sodium hypochlorite on cromolyn sodium mesophases; format: physicochemical; settings: any concentration of cromolyn sodium, 8 hours at room temperature
# Protocol: (§2) Analysis of the effect of ozone on cromolyn sodium mesophases: Six solutions of cromolyn sodium in PBS (7-12 percent) were placed in narrow (5 mm) NMR tubes and ozone (10 percent in oxygen) was bubbled for 5 minutes through the solutions using a flexible Teflon tube. […] Control experiments were carried out with hydrogen peroxide (30 percent) and sodium hypochlorite.
# [5] = Effect of ozone on cromolyn sodium mesophases; format: physicochemical; settings: 7-12 percent in PBS, ozone (10 percent in oxygen) bubbled for 5 minutes
# Protocol: as §2
# [6] = Control: effect of hydrogen peroxide on cromolyn sodium mesophases; format: physicochemical; settings: hydrogen peroxide (30 percent), 8 hours at room temperature
# Protocol: as §2
# asthmatic human patients = assay: Double-blind cross-over study in asthmatic children, adenosine bronchial provocation test; format: in vivo; settings: about 80 ppm nightly for two weeks
# Source text: Patients: Eleven patients were recruited from children to the pediatric pulmonary clinic, Rambam Medical Center, Haifa. Inclusion criteria: age: 6-11 years; diagnosis of asthma by ATS criteria; ability to perform spirometry consistently; asthma severity classified as “mild persistent” as per the GINA workshop report; no anti-inflammatory medication, including antihistamines, taken for at least 2 weeks prior to enrollment. Exclusion criteria: presence of other chronic conditions; emergency room visit in the past 3 months; respiratory infection in the past month; steroids or other anti-inflammatory medication taken within 2 weeks prior to treatment; and bronchodilators, theophylline preparations or monteleukast taken in the 24 hours prior to spirometry.
# Study design: A double-blind cross-over study format was used to evaluate the effect of monoterpenes on asthma. The study included four phases, each lasting two weeks. Following enrollment, baseline spirometry was performed and inclusion/exclusion was verified. The patients then filled in a diary card for two weeks. […]
# Adenosine bronchial provocation test (BPT): Bronchial provocation tests were performed by inhalation of nebulized adenosine 5′-monophosphate (adenosine; Sigma chemical company, St. Louis, Mo., USA) solutions in doubling doses. […] The best of three efforts were recorded. […]
# [7] = 0-3 scale, 125 ppm inhalation day 14-21, OVA sensitized, OVA challenged rats
# [8] = H&E, representative treated rat
structure (smiles),measurement,setting,value
CC12CCC(CC1)C(C)(C)O2 [eucalyptol],Penh values,[1],2.25±0.12
same,morphological evidence of bronchoconstriction score,"[2]; 0-3 grades, 125 ppm inhalation day 14-21, OVA sensitized, OVA challenged rats",2.3±0.21
same,peribronchial inflammatory cell infiltration score,[2]; [7],2.2±0.29
same,perivascular inflammatory cell infiltration score,[2]; [7],2.5±0.27
same,granulomas (granulomatous response) score,"[2]; 125 ppm inhalation day 14-21, OVA sensitized, OVA challenged rats",1.8±0.42
same,morphologic bronchoconstriction in representative lung section (FIG. 12),[2]; [8],shows morphologic evidence of bronchoconstriction
same,peribronchiolar inflammation in representative lung section (FIG. 12),[2]; [8],peribronchiolar inflammation and a lymphoid follicle
O=C(O)c1cc(=O)c2c(OCC(O)COc3cccc4oc(C(=O)O)cc(=O)c34)cccc2o1 [cromolyn sodium],minimal concentration that exhibited birefringence,[3],6%
same,birefringence after hypochlorite,[4],No effect
same,birefringence after ozone,[5],Loss of birefringence in all tubes
same,conversion to oxidized products (1H-NMR),[5],complete conversion
same,"birefringence after hydrogen peroxide, 7 and 8 percent cromolyn sodium",[6],loss of birefringence was observed
same,"birefringence after hydrogen peroxide, more concentrated cromolyn sodium",[6],No effect
"C=C(C)[C@H]1CC=C(C)CC1 [limonene, d-limonene]",improvement in severely asthmatic patients as compared to moderately asthmatic patients,asthmatic human patients; adenosine challenge,approximately one order of magnitude improvement
same,asthmatics with asthmatic stress significantly and specifically relieved (adenosine challenge),"asthmatic human patients; children 6-11 years, compared to cineole negative control",6/11
